{"source": "paper PMC5748433", "about": "“Study on the effect of EMD386088, a 5-HT6 receptor partial agonist, in enhancing the anti-immobility action of some antidepressants in rats” (Naunyn-Schmiedeberg's Archives of Pharmacology, 2017)", "key": {"α1-adrenoceptors": {"tested_on": "α1-adrenoceptors", "parameters": "method as in Jastrzębska-Więsek et al. [2013]", "conditions": "ref Jastrzębska-Więsek et al. [2013]; cited from earlier work"}, "rats": {"tested_on": "rats", "experiment": "Open field (OF) test in rats, locomotor/exploratory activity", "type": "in vivo, rat", "conditions": "2.5 mg/kg i.p. 30 min before test, 5-min session, mean ± SEM, 2.5 mg/kg", "method": "All drugs were dissolved in distilled water immediately before administration in a volume of 2 mL/kg. All the compounds were administered intraperitoneally (i.p.). […] Control animals received vehicle according to the same schedule.\nThe experiment was performed using Motor Monitor System (Campden Instruments, Ltd., UK) consisted of two SmartFrame Open Field stations (40 × 40 × 38 cm) with 16 × 16 beams, located in sound attenuating chambers and connected to PC software by control chassis. Individual vehicle- or drug-injected animals were gently placed in the center of the station. An automated motor monitor system recorded ambulation (the number of crossings in X and Y axis), the number of rearing episodes, and total distance covered by a rat for 5 min.\nThe data of behavioral studies were evaluated using two-way analysis of variance (ANOVA) followed by Bonferroni’s post hoc test, p < 0.05 was considered significant."}, "dopamine D2": {"tested_on": "dopamine D2", "parameters": "method as in Jastrzębska-Więsek et al. [2013]", "conditions": "ref Jastrzębska-Więsek et al. [2013]; cited from earlier work"}, "α2-adrenoceptors": {"tested_on": "α2-adrenoceptors", "parameters": "method as in Jastrzębska-Więsek et al. [2013]", "conditions": "ref Jastrzębska-Więsek et al. [2013]; cited from earlier work"}, "opioid μ receptors": {"tested_on": "opioid μ receptors", "parameters": "method as in Jastrzębska-Więsek et al. [2013]", "conditions": "ref Jastrzębska-Więsek et al. [2013]; cited from earlier work"}, "[1]": {"experiment": "Distribution of EMD386088 in rats' brain (LC/MS/MS, non-compartmental)", "type": "in vivo, rat", "method": "Blood samples were collected at 0 min (predose), 5 min, 15 min, 30 min, 60 min, 120 min, and 240 min after injections. The blood was collected from right ventricle under anesthesia using a mixture of ketamine (50 mg/kg)/xylasine (8 mg/kg) in the ratio of 3:1, and 0.025 mL of a mixture for 10 g body weight was injected i.p. 10 min before planned blood collection. Blood and brain samples were collected under general anesthesia induced by i.p. injections of ketamine (50 mg/kg)/xylasine (8 mg/kg). The blood samples were taken into heparinized tubes, immediately centrifuged at 3500 rpm for 10 min, and plasma was collected. After the blood was drawn, the rat’s spinal cord was cut and the cerebral tissue was removed, and after dissection washed in PBS saline. The brain and plasma samples were immediately frozen at − 80 °C for LC/MS/MS analysis.\nPharmacokinetic parameters were calculated by a non-compartmental approach from the average concentration values, using Phoenix WinNonlin software (Certara, Princeton, NJ 08540 USA). First order elimination rate constant (λz) was calculated by linear regression of time versus log concentration.\nThe quantification of studied compounds in plasma and brain samples was done using HPLC Agilent 1100 system (Agilent Technologies, Waldbronn, Germany) coupled to the triple quadrupole mass spectrometer API 2000 (ABSciex, Framingham, Massachusetts, USA) equipped with an electrospray ion source. After preparation, the samples were injected (20 μL) onto XBridge C18 (2.1 mm × 30 mm, 3.5 μm, Waters, Milford, Massachusetts, USA) analytical column. The mobile phase consisted of ACN with 0.1% formic acid (A) and water with 0.1% formic acid (B) were delivered in gradient elution started with 90% of eluent B, increasing during 2 min to 90% of eluent A, maintained to 3 min, and then returned during 5 min to 90% of eluent B, and maintained 90% of eluent B during 5 min at a flow rate of 300 μL/min. The total time of analysis was 15 min. Electrospray ionization process was performed in positive ionization and the data acquisition was carried out in multiple reaction monitoring mode (MRM) for EMD386088 and its internal standard (nebivolol). The ion spray source settings were as follows: spray voltage: 5 kV, heater temperature: 350 °C, curtain gas: 15 psi, source gas 1: 35 psi, source gas 2: 10 psi. The ions measured were m/z 247.3 (Q1) and m/z 168.2 (Q3) for EMD386088, and m/z 406.2 (Q1) and m/z 151.1 (Q3) for IS.\nA sample volume of 50 μL of plasma or brain homogenate was transferred into the clean Eppendorf tube and spiked with 5 μL of IS solution (1 μg/mL) obtaining the final concentration of 100 ng/mL. After 5 min of mixing (1500 rpm), proteins were precipitated using 150 μL ACN. After 10 min of samples shaking (1500 rpm), the incubation step was performed (10 min, 4 °C). Next, samples were centrifuged (10,000 rpm, 10 min, 4 °C) and the supernatant was transferred into chromatographic vial for LC/MS/MS analysis. The brain homogenate was prepared maintaining the tissue: phosphate-buffered saline (PBS) at a ratio of 1:5. The homogenization was carried out employing IKA® T10 Basic ULTRA-TURRAX disperser (IKA Werke GmbH & Co. KG, Staufen, Germany). After homogenization, 50 μL of sample was collected for further preparation. All samples were stored on ice during the preparation process."}, "[2]": {"experiment": "Metabolic stability in rat liver microsomes (RLMs)", "type": "in vitro ADME", "method": "The in silico study was performed by MetaSite 5.1.1 provided by Molecular Discovery Ltd. The highest metabolism probability sites and the prediction of the structures of metabolites were analyzed during this study by liver computational model (Cruciani et al. [2005]).\nCommercial, pooled, rat liver microsomes (RLMs) were purchased from Sigma-Aldrich (St. Louis, USA). The biotransformations were carried out using 1 mg/mL of RLMs in 200 μL of reaction buffer containing 0.1 M Tris-HCl (pH 7.4) and EMD386088 with final […] 50 μM. The reaction mixture was preincubated at 37 °C for 5 min and then, the reaction was initiated by adding 50 μL of NADPH Regeneration System (Promega, Madison, WI, USA). The reaction was terminated after 30 or 120 min by the addition of 200 μL of cold methanol. The mixture was next centrifuged at 14000 rpm for 15 min and the UPLC/MS analysis of the supernatant was performed. Mass spectra was recorded on UPLC/MS system consisted of a Waters Acquity UPLC (Waters, Milford, USA), coupled to a Waters TQD mass spectrometer (electrospray ionization mode ESI-tandem quadrupole)."}, "[3]": {"conditions": "rat brain, EMD386088 2.5 mg/kg i.p. jointly with imipramine (IMI) 15 mg/kg i.p."}, "[4]": {"conditions": "rat, brain, ip, 2.5 mg/kg, rat brain, EMD386088 2.5 mg/kg i.p. alone"}, "[5]": {"conditions": "rat, brain, ip, 2.5 mg/kg, rat brain, EMD386088 2.5 mg/kg i.p. jointly with imipramine (IMI) 15 mg/kg i.p."}, "[6]": {"conditions": "rat, brain, ip, 5 mg/kg, rat brain, EMD386088 5 mg/kg i.p. alone"}}, "note": "“And” between values parts separate entries of the source, which are not always exact repeats. Equal values may be shown once. Read-outs that look alike come from different tables or passages of the source.", "data": [{"compound": "Cc1[nH]c2ccc(Cl)cc2c1C1=CCNCC1.Cl", "note": "[EMD386088, 5-chloro-2-methyl-3-(1,2,3,6-tetrahydro-4-pyridinyl)-1H-indole hydrochloride]", "values": [{"measurement": "affinity for α1-adrenoceptors", "setting": "α1-adrenoceptors", "value": "no affinity"}, {"measurement": "Exploratory activity Ambulation X", "setting": "rats", "value": "261 ± 29 and 262 ± 28 and 262 ± 35 and 263 ± 28"}, {"measurement": "Exploratory activity Ambulation Y", "setting": "rats", "value": "261 ± 31 and 267 ± 37 and 262 ± 23"}, {"measurement": "Exploratory activity Rearings", "setting": "rats", "value": "90 ± 3 and 91 ± 4 and 89 ± 4 and 92 ± 9"}, {"measurement": "Exploratory activity Total distance (cm)", "setting": "rats", "value": "2677 ± 232 cm and 2721 ± 196 cm and 2644 ± 220 cm and 2722 ± 145 cm"}, {"measurement": "affinity for dopamine D2", "setting": "dopamine D2", "value": "no affinity"}, {"measurement": "affinity for α2-adrenoceptors", "setting": "α2-adrenoceptors", "value": "no affinity"}, {"measurement": "affinity for opioid μ receptors", "setting": "opioid μ receptors", "value": "no affinity"}, {"measurement": "Tmax", "setting": "[1]; ip, rat brain, EMD386088 2.5 mg/kg i.p. alone, read-out: t max (converted)", "value": 2, "unit": "h"}, {"measurement": "Tmax", "setting": "[1]; ip, rat brain, EMD386088 5 mg/kg i.p. alone, read-out: t max (converted)", "value": 2, "unit": "h"}, {"measurement": "AUC0 → t", "setting": "[1]; rat brain, EMD386088 2.5 mg/kg i.p. alone", "value": "41,936.2 ng ⋅ min/g"}, {"measurement": "AUC0 → t", "setting": "[1]; [3]", "value": "56,428.6 ng ⋅ min/g"}, {"measurement": "Tmax", "setting": "[1]; [3]", "value": 2, "unit": "h"}, {"measurement": "AUC0 → t", "setting": "[1]; rat brain, EMD386088 5 mg/kg i.p. alone", "value": "84,462.8 ng ⋅ min/g"}, {"measurement": "Cmax", "setting": "[1]; [4]", "value": 321, "unit": "ng/g"}, {"measurement": "MRT", "setting": "[1]; [4]", "value": 1.9, "unit": "h"}, {"measurement": "Cmax", "setting": "[1]; [5]", "value": 277, "unit": "ng/g"}, {"measurement": "MRT", "setting": "[1]; [5]", "value": 2.12, "unit": "h"}, {"measurement": "Cmax", "setting": "[1]; [6]", "value": 640, "unit": "ng/g"}, {"measurement": "MRT", "setting": "[1]; [6]", "value": 1.91, "unit": "h"}, {"measurement": "Kp", "setting": "[1]; rat, brain, ip, rats, EMD386088 2.5 mg/kg i.p. alone, calculated on the basis of AUC0 → t values, read-out: brain/plasma ratio", "value": "~19"}, {"measurement": "Tmax", "setting": "[1]; rat, brain, ip, rats, after i.p. administration, read-out: t max in the brain (converted)", "value": 2, "unit": "h"}, {"measurement": "decrease in penetration on coadministration with imipramine", "setting": "[1]; rats, EMD386088 with imipramine vs alone", "value": 2.5, "unit": "fold"}, {"measurement": "compound metabolized in the presence of RLMs", "setting": "[2]; RLMs 1 mg/mL, EMD386088 50 μM, after 120 min, 37 °C", "value": "~40", "unit": "%"}, {"measurement": "main metabolic pathway", "setting": "[2]; in silico (MetaSite) and in vitro (RLMs) studies", "value": "dehydrogenation of tetrahydropyridine moiety"}]}]}
